Reference: US7968529B2, “Use of sphingolipids for reducing high plasma cholesterol and high triacylglycerol levels” (Nederlandse Organisatie Voor …, priority 2003, dated 2011)

How the values were obtained:
Type in all cases: in vivo
[1] = test system: APOE*3Leiden transgenic mice; assay: Plasma cholesterol in APOE*3Leiden transgenic mice fed a Western-type diet with sphingolipid
Text: (§1) In this experiment mice were used in which the human gene for the so-called Leiden mutation of apolipoprotein E3 (APOE*3Leiden transgenic mice) had been incorporated by transgenesis. Because of this transgenic change, these so-called APOE*3Leiden mice have a humanized lipoprotein profile, and are extremely suitable for studying the effect of compounds on lipoprotein metabolism (Van Vlijmen et. al. 1996. J Clin Invest. 97:1184-1192; Van Vlijmen et. al. 1998. Arzneimittelforschung 1998; 48:396-402.).
(§2) The study design was as follows: female mice were fed for 5 weeks “Western-type” diet (Nishina et al. 1990. J Lipid Res. 31:859-869) containing 0.25% (w/w) cholesterol. Specifically, the diet contained 15% (all w/w) cocoabutter, 0.25% cholesterol, 1% corn oil, 40.5% sucrose, 20% acid casein, 10% corn starch and 5.95% cellulose, as major ingredients. This diet increased their plasma cholesterol level to about 15 mmol/L. Subsequently, the mice were randomized, on the basis of their plasma cholesterol level, into groups of six mice each. These groups were given the same diet, but containing in addition: • Group 1 no addition • Group 2 0.1% (w/w) phytosphingosine • Group 3 0.1% (w/w) sphingosine • Group 4 0.1% (w/w) sphinganine • Group 5 0.1% (w/w) cerebroside • Group 6 0.1% (w/w) ceramide IV • Group 7 0.1% (w/w) sphingomyelin
(§3) The phytosphingosine, ceramide IV and cerebroside (=glucosyl ceramide) were obtained from Cosmoferm BV (Delft, The Netherlands). Sphingomyelin from egg was obtained from Larodan Fine Chemicals AB (Stockholm, Sweden) and sphingosine and sphinganine were obtained from Avanti Polar Lipids Inc, (Alabaster, Ala., USA). During the experiment, body weight and food intake were monitored. At three weeks after the dietary change, blood was taken to determine plasma cholesterol and triglyceride levels. Also, the plasma lipoprotein pattern was determined group wise in pooled samples by fplc. Then, the concentration of the additives was changed to 0.2%, and feeding continued for another 3 weeks. At three weeks after this dietary change, blood was again taken to determine plasma cholesterol and triglyceride levels, and the plasma lipoprotein pattern was determined group wise in pooled samples by fplc. The dietary additives were then changed to 0.4% (w/w), and the same cycle of feeding and blood sampling was executed.
(§4) In a separate experiment, groups of six APOE*3Leiden mice were fed the above-described Western-type diet, containing 1.0% (w/w) of phytosphingosine. At the end of the treatment period, plasma cholesterol was reduced with 58% (p=0.007) and plasma triglyceride was reduced with 64% (p=0.01) with respect to the control group.

[2] = test system: APOE*3Leiden transgenic mice; assay: Plasma triglycerides in APOE*3Leiden transgenic mice fed a Western-type diet with sphingolipid
Text: as §1, §2, §3, §4

[3] = test system: APOE*3Leiden transgenic mice; assay: Plasma lipoprotein distribution pattern by fplc in pooled samples; settings: separate experiment, 1.0% (w/w) in diet
Text: as §3, with “executed. […] In a separate experiment, groups of six APOE*3Leiden mice were fed the above-described Western-type diet, containing 1.0% (w/w) of phytosphingosine. At the end of the treatment period, plasma cholesterol was reduced with 58% (p=0.007) and plasma triglyceride was reduced with 64% (p=0.01) with respect to the control group.” for “executed.”

[4] = t = 0, baseline after 5 weeks Western-type diet, before addition of sphingolipid, female mice, group mean
[5] = t = 3 (weeks), 0.1% (w/w) in diet
[6] = t = 6 (weeks), 0.2% in diet for the last 3 weeks
[7] = t = 9 (weeks), 0.4% (w/w) in diet for the last 3 weeks

Molecule: CCCCCCCCCCCCCC[C@@H](O)[C@@H](O)[C@@H](N)CO [PHYTOSPHINGOSINE, phytosphingosine]
- plasma cholesterol reduced with respect to the control group ([1]; separate experiment, 1.0% (w/w) in Western-type diet, end of treatment period, p=0.007): 58%
- Plasma cholesterol levels [1, 4]: 14.4 mmol/L
- Plasma cholesterol levels [1, 5]: 13.2 mmol/L
- Plasma cholesterol reduction relative to control ([1]; t = 3 (weeks), 0.1% in diet): 11.6%
- Plasma cholesterol reduction relative to control ([1]; t = 6 (weeks), 0.2% in diet): 19.7%
- Plasma cholesterol levels [1, 6]: 12.6 mmol/L
- Plasma cholesterol levels [1, 7]: 10.9 mmol/L
- Plasma cholesterol reduction relative to control ([1]; t = 9 (weeks), 0.4% in diet): 34.8%
- plasma triglyceride reduced with respect to the control group ([2]; separate experiment, 1.0% (w/w) in Western-type diet, end of treatment period, p=0.01): 64%
- Plasma triglyceride levels [2, 4]: 2.1 mmol/L
- Plasma triglyceride levels [2, 5]: 1.7 mmol/L
- Plasma triglyceride reduction relative to control ([2]; t = 3 (weeks), 0.1% in diet): 22.9%
- Plasma triglyceride reduction relative to control ([2]; t = 6 (weeks), 0.2% in diet): 39.8%
- Plasma triglyceride levels [2, 6]: 1.2 mmol/L
- Plasma triglyceride levels [2, 7]: 1.5 mmol/L
- Plasma triglyceride reduction relative to control ([2]; t = 9 (weeks), 0.4% in diet): 34.8%
- lipoprotein fractions accounting for the decrease of cholesterol and triglycerides (fplc) [3]: fully due to a decrease in VLDL and IDL/LDL fractions

Molecule: CCCCCCCCCCCCCCC[C@@H](O)[C@@H](N)CO [SPHINGANINE, sphinganine]
- Plasma cholesterol levels [1, 4]: 15.9 mmol/L
- Plasma cholesterol levels [1, 5]: 14.9 mmol/L
- Plasma cholesterol reduction relative to control ([1]; t = 3 (weeks), 0.1% in diet): 0.3%
- Plasma cholesterol reduction relative to control ([1]; t = 6 (weeks), 0.2% in diet): 36.2%
- Plasma cholesterol levels [1, 6]: 10.0 mmol/L
- Plasma cholesterol levels [1, 7]: 11.5 mmol/L
- Plasma cholesterol reduction relative to control ([1]; t = 9 (weeks), 0.4% in diet): 31.2%
- Plasma triglyceride levels [2, 4]: 2.3 mmol/L
- Plasma triglyceride levels [2, 5]: 1.7 mmol/L
- Plasma triglyceride reduction relative to control ([2]; t = 3 (weeks), 0.1% in diet): 19.2%
- Plasma triglyceride reduction relative to control ([2]; t = 6 (weeks), 0.2% in diet): 52.9%
- Plasma triglyceride levels [2, 6]: 1.0 mmol/L
- Plasma triglyceride levels [2, 7]: 1.2 mmol/L
- Plasma triglyceride reduction relative to control ([2]; t = 9 (weeks), 0.4% in diet): 44.9%

Molecule: CCCCCCCCCCCCC/C=C/[C@@H](O)[C@@H](N)CO [SPHINGOSINE, sphingosine]
- Plasma cholesterol levels [1, 4]: 14.6 mmol/L
- Plasma cholesterol levels [1, 5]: 15.3 mmol/L
- Plasma cholesterol reduction relative to control ([1]; t = 3 (weeks), 0.1% in diet): −2.1%
- Plasma cholesterol reduction relative to control ([1]; t = 6 (weeks), 0.2% in diet): 29.7%
- Plasma cholesterol levels [1, 6]: 11.0 mmol/L
- Plasma cholesterol levels [1, 7]: 9.5 mmol/L
- Plasma cholesterol reduction relative to control ([1]; t = 9 (weeks), 0.4% in diet): 43.3%
- Plasma triglyceride levels [2, 4]: 2.3 mmol/L
- Plasma triglyceride levels [2, 5]: 2.2 mmol/L
- Plasma triglyceride reduction relative to control ([2]; t = 3 (weeks), 0.1% in diet): −0.6%
- Plasma triglyceride reduction relative to control ([2]; t = 6 (weeks), 0.2% in diet): 32.5%
- Plasma triglyceride levels [2, 6]: 1.4 mmol/L
- Plasma triglyceride levels [2, 7]: 1.0 mmol/L
- Plasma triglyceride reduction relative to control ([2]; t = 9 (weeks), 0.4% in diet): 54.3%

Molecule: ceramide IV
- Plasma cholesterol levels [1, 4]: 15.6 mmol/L
- Plasma cholesterol levels [1, 5]: 14.8 mmol/L
- Plasma cholesterol reduction relative to control ([1]; t = 3 (weeks), 0.1% in diet): 1.5%
- Plasma cholesterol reduction relative to control ([1]; t = 6 (weeks), 0.2% in diet): 19.4%
- Plasma cholesterol levels [1, 6]: 12.6 mmol/L
- Plasma cholesterol levels [1, 7]: 11.7 mmol/L
- Plasma cholesterol reduction relative to control ([1]; t = 9 (weeks), 0.4% in diet): 29.9%
- Plasma triglyceride levels [2, 4]: 2.3 mmol/L
- Plasma triglyceride levels [2, 5]: 2.0 mmol/L
- Plasma triglyceride reduction relative to control ([2]; t = 3 (weeks), 0.1% in diet): 8.5%
- Plasma triglyceride reduction relative to control ([2]; t = 6 (weeks), 0.2% in diet): 49.1%
- Plasma triglyceride levels [2, 6]: 1.1 mmol/L
- Plasma triglyceride levels [2, 7]: 1.4 mmol/L
- Plasma triglyceride reduction relative to control ([2]; t = 9 (weeks), 0.4% in diet): 38.4%

Molecule: glucosyl ceramide [CEREBROSIDE]
- Plasma cholesterol levels [1, 4]: 14.8 mmol/L
- Plasma cholesterol levels [1, 5]: 14.2 mmol/L
- Plasma cholesterol reduction relative to control ([1]; t = 3 (weeks), 0.1% in diet): 5.2%
- Plasma cholesterol reduction relative to control ([1]; t = 6 (weeks), 0.2% in diet): 25.6%
- Plasma cholesterol levels [1, 6]: 11.7 mmol/L
- Plasma cholesterol levels [1, 7]: 12.8 mmol/L
- Plasma cholesterol reduction relative to control ([1]; t = 9 (weeks), 0.4% in diet): 23.4%
- Plasma triglyceride levels [2, 4]: 2.2 mmol/L
- Plasma triglyceride levels [2, 5]: 2.2 mmol/L
- Plasma triglyceride reduction relative to control ([2]; t = 3 (weeks), 0.1% in diet): −1.2%
- Plasma triglyceride reduction relative to control ([2]; t = 6 (weeks), 0.2% in diet): 42.0%
- Plasma triglyceride levels [2, 6]: 1.2 mmol/L
- Plasma triglyceride levels [2, 7]: 1.8 mmol/L
- Plasma triglyceride reduction relative to control ([2]; t = 9 (weeks), 0.4% in diet): 21.9%

Molecule: sphingomyelin
- Plasma cholesterol levels [1, 4]: 15.1 mmol/L
- Plasma cholesterol levels [1, 5]: 14.7 mmol/L
- Plasma cholesterol reduction relative to control ([1]; t = 3 (weeks), 0.1% in diet): 1.9%
- Plasma cholesterol reduction relative to control ([1]; t = 6 (weeks), 0.2% in diet): 36.8%
- Plasma cholesterol levels [1, 6]: 9.9 mmol/L
- Plasma cholesterol levels [1, 7]: 8.7 mmol/L
- Plasma cholesterol reduction relative to control ([1]; t = 9 (weeks), 0.4% in diet): 48.2%
- Plasma triglyceride levels [2, 4]: 2.5 mmol/L
- Plasma triglyceride levels [2, 5]: 1.7 mmol/L
- Plasma triglyceride reduction relative to control ([2]; t = 3 (weeks), 0.1% in diet): 19.9%
- Plasma triglyceride reduction relative to control ([2]; t = 6 (weeks), 0.2% in diet): 42.7%
- Plasma triglyceride levels [2, 6]: 1.2 mmol/L
- Plasma triglyceride levels [2, 7]: 0.9 mmol/L
- Plasma triglyceride reduction relative to control ([2]; t = 9 (weeks), 0.4% in diet): 59.5%
